Data on ten compounds can be found in US20260000676A1, “CHROMAN DERIVATIVES AS ESTROGEN RECEPTOR DEGRADERS” (THE REGENTS OF THE UNIVERSITY OF MICHIGAN, priority 2022, published 2026).

In test [1] the target is CRBN/DDB1 (Homo sapiens (Human), UniProt Q96SW2). The test is described as follows: HTRF binding assay to CRBN/DDB1. Particulars: read-out: CRBN HTRF IC50. As to the method: The binding potency was determined using HTRF assay technology (Perkin Elmer). Compounds were serially diluted in DMSO and 0.2 μL volume was transferred to white 384-well plate.
Chain of CRBN/DDB1 (Q96SW2 whole entry): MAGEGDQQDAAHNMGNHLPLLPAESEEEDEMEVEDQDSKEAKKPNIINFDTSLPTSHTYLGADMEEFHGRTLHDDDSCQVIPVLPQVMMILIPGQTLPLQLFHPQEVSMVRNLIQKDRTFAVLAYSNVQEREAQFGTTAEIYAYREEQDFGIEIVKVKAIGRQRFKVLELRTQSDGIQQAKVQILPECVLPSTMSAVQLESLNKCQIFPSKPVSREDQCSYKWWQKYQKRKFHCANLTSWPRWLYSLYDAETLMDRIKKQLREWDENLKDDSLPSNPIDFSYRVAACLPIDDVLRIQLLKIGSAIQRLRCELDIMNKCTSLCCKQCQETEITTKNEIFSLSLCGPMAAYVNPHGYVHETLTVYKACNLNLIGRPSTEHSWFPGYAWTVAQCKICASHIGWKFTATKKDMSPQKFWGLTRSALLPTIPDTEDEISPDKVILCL
Chain of CRBN/DDB1 (Q16531 whole entry partner): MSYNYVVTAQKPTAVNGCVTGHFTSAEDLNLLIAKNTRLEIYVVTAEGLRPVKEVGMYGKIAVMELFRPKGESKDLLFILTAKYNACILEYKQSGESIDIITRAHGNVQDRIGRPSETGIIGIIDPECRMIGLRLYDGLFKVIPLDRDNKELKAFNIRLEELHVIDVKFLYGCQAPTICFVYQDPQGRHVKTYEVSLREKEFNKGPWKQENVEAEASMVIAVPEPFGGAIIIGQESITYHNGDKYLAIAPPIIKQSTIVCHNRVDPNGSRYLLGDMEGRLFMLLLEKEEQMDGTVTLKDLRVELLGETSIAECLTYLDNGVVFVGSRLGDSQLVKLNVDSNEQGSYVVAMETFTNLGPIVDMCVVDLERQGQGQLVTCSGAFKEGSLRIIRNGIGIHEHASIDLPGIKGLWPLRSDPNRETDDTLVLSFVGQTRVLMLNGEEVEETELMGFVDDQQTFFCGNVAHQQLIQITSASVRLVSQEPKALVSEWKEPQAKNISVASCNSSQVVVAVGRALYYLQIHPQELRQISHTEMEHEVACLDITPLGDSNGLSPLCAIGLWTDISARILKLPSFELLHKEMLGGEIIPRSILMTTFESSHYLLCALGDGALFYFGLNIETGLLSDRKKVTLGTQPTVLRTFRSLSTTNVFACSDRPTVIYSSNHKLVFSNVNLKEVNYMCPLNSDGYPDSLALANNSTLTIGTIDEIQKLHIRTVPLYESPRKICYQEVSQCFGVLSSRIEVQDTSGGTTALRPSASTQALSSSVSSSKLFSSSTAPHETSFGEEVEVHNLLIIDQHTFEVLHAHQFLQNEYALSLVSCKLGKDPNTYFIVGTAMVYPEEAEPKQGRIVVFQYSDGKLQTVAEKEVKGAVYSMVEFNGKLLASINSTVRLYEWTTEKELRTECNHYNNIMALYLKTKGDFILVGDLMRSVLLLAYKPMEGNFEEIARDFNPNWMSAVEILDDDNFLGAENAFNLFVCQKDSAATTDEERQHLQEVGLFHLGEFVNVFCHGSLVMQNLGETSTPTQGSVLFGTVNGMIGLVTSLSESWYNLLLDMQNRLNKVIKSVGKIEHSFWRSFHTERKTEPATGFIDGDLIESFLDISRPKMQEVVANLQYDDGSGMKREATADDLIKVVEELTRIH
Test [2] has as its target ERα_LBD(GST) (Homo sapiens (Human), UniProt P03372). The test is described as follows: LanthaScreen TR-FRET ERα competitive binding assay. The note with it: read-out: ERα HTRF IC50. Summed up:
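GST-tagged ERα LBD (4 nM) with Tb anti-GST (2 nM) and Fluormone ES2 Green tracer (3 nM) in nuclear receptor buffer K plus 5 mM DTT, 1% DMSO; 3-fold compound dilutions, 60 min at room temperature in the dark. TR-FRET 520/495 nm ratio vs log[ligand], sigmoidal fit for IC50; 1 μM ARV_471 as full-inhibition control.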
In general terms: TR-FRET usually uses a lanthanide donor and a delayed reading to cut background.

Test [3] has as its target T1, ER (Homo sapiens (Human), UniProt P03372). The test is described as follows: In-cell western (ICW) ER degradation assay in MCF-7 cells. The format is cell-based. The note with it: MCF7, 16 hrs; for DC50: ER degradation; for Dmax: MCF7, maximal ER degradation.
Test [4] deals with T1, ER. The test is described as follows: In-cell western (ICW) ER degradation assay in T47D cells. The format is cell-based. The note with it: 16 hrs; for DC50: ER degradation.
Test [5] relates to MCF-7 cells. The test is described as follows: cells. Particulars: Homo sapiens, MCF7, 144 h, read-out: MCF7 Proliferation IC50 (nM).
Procedure: (§1) In vitro assay can be accomplished by MCF-7 and T47D Cell Titer Glo (CTG) assay. MCF-7 and T47D cell (From HDB) are cultured in multi-well white plate with phenol red-free RPMI1640+10% CS-FBS+1% P/S medium (e.g., at 1,000 cells/well). On day 0: Cells are treated with compound at certain concentrations (e.g., 0.5 to 10000 nM) (DMSO and Staurosporine as control). On day 0 and day 6: add Cell Titer Glo reagent and read on EnVision after 30 min incubation for data generation.
(§2) • 1) Cell culture medium: phenol red-free RPMI1640+10% CS-FBS, 1% P/S
(§3) Day-1: MCF-7 and T47D cell (From HDB) were cultured in 384-well white plate with phenol red-free RPMI1640+10% CS-FBS+1% P/S medium (1,000 cells/well) for overnight at 37° C., 5% CO2 incubator.
(§4) Day 0: Cells were treated at desired compound concentrations (0.5 to 10000 nM) (DMSO and Staurosporine as control) for Day 6 at 37° C., 5% CO2 incubator.
(§5) Day 0 and Day 6: add Cell TiterGlo reagent and read on EnVision after 30 min incubation for data generation.
Test [6] has as its system T47D cells. The test is described as follows: cells. The note with it: Homo sapiens, 144 h, read-out: T47D Proliferation IC50 (nM).
Procedure: as §1, §2, §3, §4, §5

The structures appear in SMILES notation. Bounds are passed on as bounds.

T1 sequence (P03372 whole entry): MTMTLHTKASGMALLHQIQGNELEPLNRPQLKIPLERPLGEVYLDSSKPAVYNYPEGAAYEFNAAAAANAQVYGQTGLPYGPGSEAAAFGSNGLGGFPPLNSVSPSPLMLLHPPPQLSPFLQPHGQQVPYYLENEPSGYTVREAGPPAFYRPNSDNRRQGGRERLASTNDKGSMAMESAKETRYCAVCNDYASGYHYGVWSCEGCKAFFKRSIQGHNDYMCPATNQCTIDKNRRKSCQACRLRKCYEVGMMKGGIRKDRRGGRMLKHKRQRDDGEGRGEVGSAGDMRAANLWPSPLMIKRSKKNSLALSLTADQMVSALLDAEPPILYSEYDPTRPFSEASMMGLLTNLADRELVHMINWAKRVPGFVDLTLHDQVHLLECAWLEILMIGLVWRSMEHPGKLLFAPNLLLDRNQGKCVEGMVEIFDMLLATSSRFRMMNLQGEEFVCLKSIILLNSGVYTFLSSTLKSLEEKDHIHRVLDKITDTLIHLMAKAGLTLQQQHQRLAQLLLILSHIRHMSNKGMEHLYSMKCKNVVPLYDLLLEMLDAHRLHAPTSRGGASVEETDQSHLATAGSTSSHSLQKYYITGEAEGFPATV
Chain of ERα_LBD(GST) (P03372 311-547): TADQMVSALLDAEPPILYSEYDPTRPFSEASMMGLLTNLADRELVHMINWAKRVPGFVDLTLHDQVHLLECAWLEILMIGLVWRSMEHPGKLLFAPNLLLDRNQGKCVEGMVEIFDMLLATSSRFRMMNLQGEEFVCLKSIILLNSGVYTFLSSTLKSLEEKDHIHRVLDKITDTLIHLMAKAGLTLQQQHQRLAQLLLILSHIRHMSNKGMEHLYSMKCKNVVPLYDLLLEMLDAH

The DC50 is the concentration at which degradation of the target reaches its halfway point. For orientation: Dmax means the greatest extent of degradation seen. Read a low Dmax as shallow degradation. As for `O=C1CCC(N2Cc3cc(N4CCN(CC5CCN(c6ccc([C@@H]7c8ccc(O)cc8OC[C@@H]7c7ccccc7)cc6)CC5)CC4)ccc3C2=O)C(=O)N1` (single isomer, unassigned) [Compound A62], the IC50 in test [1] was 50 to 500 nM; in test [2] it was less than 5 nM; in test [5], less than 50 nM; in test [6] it was less than 50 nM. Besides, the DC50 in test [3] and in test [4] was less than 1 nM in each case. Also, the maximal degradation (Dmax) in test [3] and in test [4] (maximal ER degradation) was 50 to 75% throughout.

Take `O=C1CC[C@@H](N2Cc3c(ccc4c3OCC43CCN(CC4CCC5(CC4)CN(c4ccc([C@H]6c7ccc(O)cc7OC[C@H]6c6ccccc6)cc4)C5)CC3)C2=O)C(=O)N1` [Compound A154, (R)-3-(1′-((2-(4-((3R,4S)-7-hydroxy-3-phenylchroman-4-yl)phenyl)-2-azaspiro[3.5]nonan-7-yl)methyl)-6-oxo-6,8-dihydro-2H,7H-spiro[furo[2,3-e]isoindole-3,4′-piperidin]-7-yl)piperidine-2,6-dione]: the IC50 in test [1] is less than 50 nM; in test [2], less than 5 nM; in test [5], less than 50 nM; in test [6], less than 50 nM. The DC50 in test [3] and in test [4] was less than 1 nM each time. Also, the Dmax was 50 to 75% in test [3] and no less than 75% in test [4] (maximal ER degradation).

Turning to `O=C1CC[C@@H](N2Cc3cc4c(cc3C2=O)OC[C@H]2CN(CC3COC5(CCN(c6ccc([C@H]7c8ccc(O)cc8OC[C@H]7c7ccccc7)cc6)CC5)C3)CCN42)C(=O)N1` (stereo partly drawn) [Compound A138, (3R)-3-((4aR)-3-((8-(4-((3R,4S)-7-hydroxy-3-phenylchroman-4-yl)phenyl)-1-oxa-8-azaspiro[4.5]decan-3-yl)methyl)-8-oxo-1,2,3,4,4a,5,8,10-octahydro-9H-pyrazino[1′,2′:4,5][1,4]oxazino[2,3-f]isoindol-9-yl)piperidine-2,6-dione], the IC50 in test [1] was 50 to 500 nM; in test [2] it was less than 5 nM; in test [5], less than 50 nM; in test [6], less than 50 nM. For the same compound, the DC50 in test [3] and in test [4] was less than 1 nM throughout. For the same compound, the Dmax was no less than 75% in test [3] and 50 to 75% in test [4] (maximal ER degradation).

Consider `COc1cc(C(=O)NC2CCC(=O)NC2=O)ncc1N1CCN(CC2CCC3(CC2)CN(c2ccc([C@H]4c5ccc(O)cc5OC[C@H]4c4ccccc4)cc2)C3)CC1` (mixture of isomers) [Compound A117, N-(2,6-dioxopiperidin-3-yl)-5-(4-((2-(4-((3R,4S)-7-hydroxy-3-phenylchroman-4-yl)phenyl)-2-azaspiro[3.5]nonan-7-yl)methyl)piperazin-1-yl)-4-methoxypicolinamide], for which the IC50 in test [1] is 500 to 5000 nM; in test [2], less than 5 nM; in test [5] it was less than 50 nM; in test [6] it was less than 50 nM. Also, the DC50 in test [3] and in test [4] was less than 1 nM in each case. Also, the Dmax in test [3] and in test [4] (maximal ER degradation) was no less than 75% each time.

`O=C1CC[C@@H](N2Cc3cc4c(cc3C2=O)OCC2CN(CC3CCC5(CC3)CN(c3ccc([C@H]6c7ccc(O)cc7OC[C@H]6c6ccccc6)cc3)C5)CCN42)C(=O)N1` (stereo in doubt) [Compound A120, (R)-3-((R)-3-((2-(4-((3R,4S)-7-hydroxy-3-phenylchroman-4-yl)phenyl)-2-azaspiro[3.5]nonan-7-yl)methyl)-8-oxo-1,2,3,4,4a, 5,8,10-octahydro-9H-pyrazino[1′,2′:4,5][1,4]oxazino[2,3-f]isoindol-9-yl)piperidine-2,6-dione]: the IC50 in test [2] was less than 5 nM; in test [5], 50 to 500 nM; in test [6] it was 50 to 500 nM. Also, the results for the DC50 in test [3] and in test [4] were 1 to 10 nM and less than 1 nM, respectively. Besides, the maximal degradation (Dmax) in test [3] and in test [4] (maximal ER degradation) was no less than 75% each time.

Regarding `O=C1CC[C@@H](N2Cc3cc4c(cc3C2=O)OC[C@H]2CN(CC3CCC5(CC3)CN(c3ccc([C@H]6c7ccc(O)cc7OC[C@H]6c6ccccc6)cc3)C5)CCN42)C(=O)N1` (single isomer, unassigned) [Compound A118], the IC50 is less than 5 nM in test [2], 50 to 500 nM in test [5] and 50 to 500 nM in test [6]. Moreover, the DC50 in test [3] and in test [4] was 1 to 10 nM each time. Also, the Dmax in test [3] and in test [4] (maximal ER degradation) was no less than 75% in each case.

As to `O=C1CC[C@H](N2Cc3c(ccc4c3OC[C@H]3CN(CC5CC6(CCN(c7ccc([C@H]8c9ccc(O)cc9OC[C@H]8c8ccccc8)cc7)CC6)C5)CCN43)C2=O)C(=O)N1` (single isomer, unassigned) [Compound A50], the IC50 is 50 to 500 nM in test [1], less than 5 nM in test [2], 50 to 500 nM in test [5] and 50 to 500 nM in test [6]. The DC50 is 1 to 10 nM in test [3] and less than 1 nM in test [4]. Further, the Dmax in test [3] and in test [4] (maximal ER degradation) was 50 to 75% each time.

As for `COc1cc(N2CCC(CN3CCC(c4ccc(N[C@@H]5CCC(=O)NC5=O)cc4)CC3)CC2)ccc1[C@@H]1c2ccc(O)cc2OC[C@@H]1c1ccccc1` [Compound A150, (R)-3-((4-(1-((1-(4-((3S,4R)-7-hydroxy-3-phenylchroman-4-yl)-3-methoxyphenyl)piperidin-4-yl)methyl)piperidin-4-yl)phenyl)amino)piperidine-2,6-dione], the IC50 in test [2] was less than 5 nM; in test [5], 50 to 500 nM; in test [6] it was 50 to 500 nM. Also, the DC50 in test [3] and in test [4] was less than 1 nM each time. Moreover, the Dmax in test [3] and in test [4] (maximal ER degradation) was 25 to 50% throughout.

Take `O=C1CC[C@H](N2Cc3c(ccc4c3OC[C@H]3CN(CC5CCC6(CC5)CN(c5ccc([C@@H]7c8ccc(O)cc8OC[C@@H]7c7ccccc7)cc5)C6)CCN43)C2=O)C(=O)N1` (single isomer, unassigned) [Compound A115]: the IC50 was 50 to 500 nM in test [1], less than 5 nM in test [2], 50 to 500 nM in test [5] and 50 to 500 nM in test [6]. The DC50 in test [3] and in test [4] was less than 1 nM in each case. The Dmax in test [3] and in test [4] (maximal ER degradation) was no less than 75% in each case.

As for `O=C1CCC(N2Cc3cc4c(cc3C2=O)OC[C@@H]2CN(CC3CCC5(CC3)CN(c3ccc([C@@H]6c7ccc(O)cc7OC[C@@H]6c6ccccc6)cc3)C5)CCN42)C(=O)N1` (single isomer, unassigned) [Compound A58], the IC50 is 500 to 5000 nM in test [1], less than 5 nM in test [2], 50 to 500 nM in test [5] and 50 to 500 nM in test [6]. The DC50 in test [3] and in test [4] was 1 to 10 nM throughout. In addition, in test [3] (maximal ER degradation), the “MCF7 Dmax %” value was “C (“C”: 25%-50%)”. In test [4] (maximal ER degradation), the “T47D Dmax %” value is “B (“B”: >50% and <75%)”.
